Laboratory results: patent publication US12617794B2, “GABAA positive allosteric modulator compounds, methods of making, and uses thereof” (NEUROCYCLE THERAPEUTICS, INC., priority 2019, dated 2026)
≈ marks a conversion by molar mass, not a printed value. Structures can show the parent of a compound that is named as a salt. Where two headings read alike, the source gives them in different places. One block for each molecule: values may come before it.

Key:
Assay type in all cases: physicochemical
[1] = Dynamic vapor sorption (DVS) of salts (38.9); settings: for DVS absorption / moisture: between 0% to 90% RH
Procedure: DVS was determined using IGA Sorp (Hiden Isochema, UK). The sample was tested at a targeted RH of 0 to 90% full cycle in step mode. The analysis was performed in 10% RH increments.

[2] = One week accelerated stability testing (Example 3)
Procedure: The stability of Phosphate Polymorphic Form A and Free Base Polymorphic Form A were evaluated under accelerated conditions.

[3] = Solid stability of free base and salts at 60° C. and 40° C./75% RH (38.3, Example 48); settings: for chemical stability / physical stability (crystal form by XRPD): 60° C. and 40° C./75% RH for 7 days; for Crystal form day 7: XRPD
Procedure: Samples of TPA023B Free Base, TPA023B chloride, TPA023B besylate, and TPA023B sulfate were mounted on stability at 60° C. and 40° C./75% RH for up to 7 days. At day-0, day-3 and day-7, the samples were dissolved in diluent to prepare solutions at 0.5 mg/mL for HPLC analysis. Solid samples were analyzed by XRPD to determine the crystal form.
Solid samples were examined using D8 ADVANCE X-ray diffractometer (Bruker). The diffractometer was equipped with LynxEye detector. In XRPD analysis, samples were scanned from 3 to 40° 2θ at a step of 0.02° 2θ. The tube voltage and current were 40 KV and 40 mA, respectively.

[4] = Solubility in aqueous buffers, SGF, FaSSIF and FeSSIF (Example 15); settings: ~20-25° C., ~24 hours; for solubility thermodynamic: 20 °C, thermodynamic from solid, read-out: Measured Conc.; for Measured Conc. (μg/mL): LOQ: 0.1 μg/mL
Procedure: About 2 mg of test article was added to a 1.5 mL vials which contained ˜1.0 mL of one medium listed in Table 7 and Table 8, which was then sealed. The mixtures were stirred at ˜20-25° C. for ˜24 hours. After that, the mixture was filtered by 0.45 μm filter membrane and then the supernatant was analyzed by HPLC.

[5] = Intrinsic dissolution rate in SGF (Example 16); settings: 37° C., 100 rpm, linear scope within 2 to 120 min
Procedure: About 100 mg of Free Base Polymorphic Form A or Phosphate Polymorphic Form A was weighed into the intrinsic dissolution apparatus and the sample compressed for 1 minute with a compression force of ˜4 MPa to form a compacted pellet within the stainless-steel die. All loose powder was removed from the surface of the die. The intrinsic dissolution shaft was connected with the stainless-steel die and tightened so only one surface of the pellet was exposed (surface area=0.496 cm^2). The shaft in the spindle was adjusted to ensure the exposed surface of the compacted tablet was ˜3.8 cm from the bottom of the vessel when lowered. The temperature of chamber water was set at 37° C.±0.5° C., the shaft rotation at 100 rpm and the sampling time points at 2, 5, 10, 15, 30, 45, 60, 120 min. SGF was used as dissolution medium (900 mL). At each time point, solution samples were filtered, and the supernatant was analyzed by HPLC-UV.

[6] = Reactive crystallization with 1.1 eq phosphoric acid (Example 65); settings: stirred at RT 7 hours
Procedure: About 25 mg of Free Base Form H was dissolved or suspended in ˜1 mL of a selected solvent. […] The solid was isolated and characterized.
Free Base Form H was dissolved or suspended in ˜1 mL selected solvent. […] Solid was isolated and characterized. No new phosphate Form was obtained in reactive crystallization under this method.

[7] = Slurry of chloride or besylate salt in EA or heptane at 50° C. overnight; settings: slurried in EA or heptane at 50° C. overnight
[8] = 40° C./75% RH, listed as Free base (Form A)
[9] = 60° C., listed as Free base (Form A)

SMILES: CC(C)(O)c1cnn2c(-c3ccc(F)c(-c4c(F)cccc4C#N)c3)cnc2n1 [Chloride Form B, 2′,6-difluoro-5′-[3-(1-hydroxy-1-methylethyl)-imidazo[1,2-b][1,2,4]triazin-7-yl]biphenyl-2-carbonitrile]
XRPD after DVS [1]: No XRPD change after DVS. | DVS absorption / moisture [1]: DVS: 0-1.4691% absorption

SMILES: CC(C)(O)c1cnn2c(-c3ccc(F)c(-c4c(F)cccc4C#N)c3)cnc2n1 [Free Base Polymorphic Form A, 2′,6-difluoro-5′-[3-(1-hydroxy-1-methylethyl)-imidazo[1,2-b][1,2,4]triazin-7-yl]biphenyl-2-carbonitrile]
Assay (%) ([2]; 40° C./75% RH (open), 1 week): 102.35% | Purity (%) ([2]; 40° C./75% RH (open), 1 week): 98.64% | Assay (%) ([2]; 80° C. (open), 1 week): 101.60% | Purity (%) ([2]; 80° C. (open), 1 week): 98.62% | Purity (%) ([2]; Initial): 98.72% | Assay (%) ([2]; Initial, assay criterion 95%-105%): 105.51% | Assay (%) ([2]; Light, ~50 h): 104.28% | Purity (%) ([2]; Light, ~50 h): 98.60% | HPLC Purity (%) day 3 [3, 8]: 98.2% | HPLC Purity (%) day 7 [3, 8]: 98.2% | chemical stability [3]: chemically stable | physical stability (crystal form by XRPD) ([3]; listed as TPA023B free base): physically stable | physical stability (crystal form by XRPD) ([3]; listed as TPA-23B free base): remained unchanged | HPLC Purity (%) day 3 [3, 9]: 98.1% | HPLC Purity (%) day 7 [3, 9]: 98.3% | HPLC Purity (%) day 0 ([3]; listed as Free base (Form A)): 98.1% | Measured Conc. ([4]; Purified water): 0.14 µg/mL | solubility thermodynamic ([4]; fasted-state simulated intestinal fluid (FaSSIF), fassif, FaSSIF): 2.11 µg/mL (≈ 5.39 µM) | solubility thermodynamic ([4]; fed-state simulated intestinal fluid (FeSSIF), fessif, FeSSIF): 9.63 µg/mL (≈ 24.6 µM) | Measured Conc. ([4]; pH 1.2 Hydrochloric Acid Buffer (50 mM)): 9.77 µg/mL | Measured Conc. (μg/mL) ([4]; pH 3.0 citrate buffer (100 mM)): <LOQ | Measured Conc. (μg/mL) ([4]; pH 4.5 citrate buffer (100 mM)): <LOQ | Measured Conc. (μg/mL) ([4]; pH 7.4 PBS (50 mM)): <LOQ | Measured Conc. (μg/mL) ([4]; pH 9.0 USP Buffer (50 mM)): <LOQ | solubility thermodynamic ([4]; simulated gastric fluid (SGF), simulated gastric fluid, SGF): 1.38 µg/mL (≈ 3.53 µM) | intrinsic dissolution rate [5]: 5×10^−5 mg·cm^2·min^−1

SMILES: CC(C)(O)c1cnn2c(-c3ccc(F)c(-c4c(F)cccc4C#N)c3)cnc2n1 [Free Base Polymorphic Form H, 2′,6-difluoro-5′-[3-(1-hydroxy-1-methylethyl)-imidazo[1,2-b][1,2,4]triazin-7-yl]biphenyl-2-carbonitrile]
Result (solid form obtained) ([6]; solvent 1,4-dioxane): Phosphate Form A | Result (solid form obtained) ([6]; solvent ACN): Phosphate Form A | Result (solid form obtained) ([6]; solvent Acetone): Phosphate Form A | Result (solid form obtained) ([6]; solvent BAC): Phosphate Form A | Result (solid form obtained) ([6]; solvent Cyclohexanone): Phosphate Form A | Result (solid form obtained) ([6]; solvent DCM): Phosphate Form A | Result (solid form obtained) ([6]; solvent DEE): Phosphate Form A | Result (solid form obtained) ([6]; solvent EA): Phosphate Form A | Result (solid form obtained) ([6]; solvent IPAC): Phosphate Form A | Result (solid form obtained) ([6]; solvent MEK): Phosphate Form A | Result (solid form obtained) ([6]; solvent MTBE): Phosphate Form A | Result (solid form obtained) ([6]; solvent N-pentane): Phosphate Form A | Result (solid form obtained) ([6]; solvent PPG 2000): Phosphate Form A | Result (solid form obtained) ([6]; solvent Trichloromethane): Phosphate Form A | Result (solid form obtained) ([6]; solvent polysorbate 80): Phosphate Form A

Continued, values first:

HPLC Purity (%) day 3 ([3]; 40° C./75% RH): 98.8% | HPLC Purity (%) day 7 ([3]; 40° C./75% RH): 98.8% | Crystal form day 7 ([3]; 40° C./75% RH): three extra peaks | Crystal form day 7 ([3]; 40° C./75% RH, listed as TPA-23B besylate): three extra peaks | chemical stability [3]: chemically stable | HPLC Purity (%) day 3 ([3]; 60° C.): 98.8% | HPLC Purity (%) day 7 ([3]; 60° C.): 98.8% | HPLC Purity (%) day 0 [3]: 98.8% | crystal form after slurry [7]: remained unchanged | XRPD after DVS [1]: No XRPD change after | DVS absorption / moisture [1]: DVS: 0-1.047% moisture
SMILES: CC(C)(O)c1cnn2c(-c3ccc(F)c(-c4c(F)cccc4C#N)c3)cnc2n1 [TPA023B Besylate (Form A), 2′,6-difluoro-5′-[3-(1-hydroxy-1-methylethyl)-imidazo[1,2-b][1,2,4]triazin-7-yl]biphenyl-2-carbonitrile]

HPLC Purity (%) day 3 ([3]; 40° C./75% RH): 98.8% | HPLC Purity (%) day 7 ([3]; 40° C./75% RH): 98.8% | chemical stability [3]: chemically stable | physical stability (crystal form by XRPD) [3]: physically stable | physical stability (crystal form by XRPD) ([3]; listed as TPA-23B sulfate): remained unchanged | HPLC Purity (%) day 3 ([3]; 60° C.): 98.8% | HPLC Purity (%) day 7 ([3]; 60° C.): 98.8% | HPLC Purity (%) day 0 [3]: 98.8% | XRPD after DVS [1]: No XRPD change after | hygroscopicity [1]: light hygroscopicity | DVS absorption / moisture [1]: DVS: 0-1.206% moisture
SMILES: CC(C)(O)c1cnn2c(-c3ccc(F)c(-c4c(F)cccc4C#N)c3)cnc2n1 [TPA023B Sulfate (Form A), 2′,6-difluoro-5′-[3-(1-hydroxy-1-methylethyl)-imidazo[1,2-b][1,2,4]triazin-7-yl]biphenyl-2-carbonitrile]

HPLC Purity (%) day 3 ([3]; 40° C./75% RH): 98.8% | HPLC Purity (%) day 7 ([3]; 40° C./75% RH): 98.7% | chemical stability [3]: chemically stable | physical stability (crystal form by XRPD) [3]: physically stable | physical stability (crystal form by XRPD) ([3]; listed as TPA-23B chloride): remained unchanged | HPLC Purity (%) day 3 ([3]; 60° C.): 98.4% | HPLC Purity (%) day 7 ([3]; 60° C.): 98.4% | HPLC Purity (%) day 0 [3]: 97.6% | crystal form after slurry [7]: remained unchanged
SMILES: CC(C)(O)c1cnn2c(-c3ccc(F)c(-c4c(F)cccc4C#N)c3)cnc2n1 [TPA023B chloride (Form C), 2′,6-difluoro-5′-[3-(1-hydroxy-1-methylethyl)-imidazo[1,2-b][1,2,4]triazin-7-yl]biphenyl-2-carbonitrile]
